{"source": "patent EP4737452A1", "about": "“NOVEL PYRIMIDINE DERIVATIVES” (Aigen Sciences Inc., priority 2023, dated 2025)", "key": {"MDA-MB-436": {"system": "MDA-MB-436", "test": "Cell survival analysis (CellTiter-Glo, 10 days culture)", "assay_type": "cell-based", "conditions": "Homo sapiens, 240 h; MDA-MB-436 cell line, cultured for 10 days, CellTiter-Glo; read-out: Cell growth IC50 grade", "protocol": "In this experimental example, the cell growth inhibitory effect of compounds according to the present invention and positive control compounds in tumor cell lines was examined.\nMDA-MB-436 (ATCC, #HTB-130) cell line was cultured in cell culture medium (Leibovitz's L-15 (GIBCO catalog no. 11415064) + 10 µg/mL insulin (Yeasen catalog no. 40112ES25) + 16 µg/mL glutathione (GIBCO catalog no. 25030-081) + 10% fetal bovine serum (FBS) (Excell Bio catalog no. FSP500)). 3,000 MDA-MB-436 cells were plated per well in a 96-well plate and cultured for 1 day at 37°C in 5% CO2. […] The cells were then cultured in a cell incubator for 10 days, and the cell culture medium containing the compound was replaced on the 5th day of culture. Cell survival rate was analyzed for luminescence using the Promega CellTiter-Glo Luminescent Cell Viability Assay Kit (Promega catalog number G7573), and the luminescence was measured using a PerkinElmer EnVision instrument. The percentage of cell growth inhibition rate was calculated from the measured relative luminescence unit (RLU) as follows. Inhibition rate = 1−((RLU compound−RLU blank)/(RLU control−RLU blank)) × 100 [formula]"}, "USP1 enzyme": {"biological_target": "USP1 enzyme (Homo sapiens, UniProt O94782)", "sequence (O94782 whole entry)": "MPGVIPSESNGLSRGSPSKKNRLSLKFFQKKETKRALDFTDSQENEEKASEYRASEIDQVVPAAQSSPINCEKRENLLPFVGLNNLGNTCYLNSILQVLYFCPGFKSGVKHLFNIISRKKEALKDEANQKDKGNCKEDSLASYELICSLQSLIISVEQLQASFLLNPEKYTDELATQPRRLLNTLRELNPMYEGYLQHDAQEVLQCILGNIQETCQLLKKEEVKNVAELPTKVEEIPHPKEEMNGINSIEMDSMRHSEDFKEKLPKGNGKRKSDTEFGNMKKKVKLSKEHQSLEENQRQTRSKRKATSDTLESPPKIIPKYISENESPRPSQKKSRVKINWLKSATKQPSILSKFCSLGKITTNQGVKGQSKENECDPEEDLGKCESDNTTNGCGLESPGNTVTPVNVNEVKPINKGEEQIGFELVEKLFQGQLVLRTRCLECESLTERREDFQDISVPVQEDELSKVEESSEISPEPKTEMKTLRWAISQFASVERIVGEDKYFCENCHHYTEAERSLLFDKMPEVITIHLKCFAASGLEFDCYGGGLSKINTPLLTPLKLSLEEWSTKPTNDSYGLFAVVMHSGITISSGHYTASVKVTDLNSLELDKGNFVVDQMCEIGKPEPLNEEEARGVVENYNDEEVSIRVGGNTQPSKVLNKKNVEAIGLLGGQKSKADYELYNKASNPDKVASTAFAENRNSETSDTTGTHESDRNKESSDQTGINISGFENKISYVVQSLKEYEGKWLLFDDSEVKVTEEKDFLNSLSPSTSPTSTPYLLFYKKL", "sequence (Q8TAF3 whole entry partner)": "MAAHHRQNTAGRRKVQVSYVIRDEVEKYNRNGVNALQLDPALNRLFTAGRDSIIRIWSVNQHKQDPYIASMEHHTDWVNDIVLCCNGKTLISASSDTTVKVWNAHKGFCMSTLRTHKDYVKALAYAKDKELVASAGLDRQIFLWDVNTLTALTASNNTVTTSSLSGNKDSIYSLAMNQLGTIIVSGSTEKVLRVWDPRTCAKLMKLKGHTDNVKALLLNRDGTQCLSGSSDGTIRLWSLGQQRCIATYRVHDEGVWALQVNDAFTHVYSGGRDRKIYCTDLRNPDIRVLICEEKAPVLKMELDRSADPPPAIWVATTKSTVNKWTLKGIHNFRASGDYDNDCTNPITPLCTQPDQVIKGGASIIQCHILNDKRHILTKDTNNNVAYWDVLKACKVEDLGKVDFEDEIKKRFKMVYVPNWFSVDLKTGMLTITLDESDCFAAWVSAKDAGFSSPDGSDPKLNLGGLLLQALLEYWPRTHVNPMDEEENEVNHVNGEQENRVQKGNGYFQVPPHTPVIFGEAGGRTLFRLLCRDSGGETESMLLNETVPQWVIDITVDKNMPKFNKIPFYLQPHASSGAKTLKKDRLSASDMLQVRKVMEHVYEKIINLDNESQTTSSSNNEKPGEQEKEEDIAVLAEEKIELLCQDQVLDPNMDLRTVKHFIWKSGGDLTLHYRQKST", "test": "Biochemical analysis of USP1 enzyme activity (ubiquitin-rhodamine 110 deubiquitination, fluorescence)", "conditions": "ubiquitin-rhodamine 110 substrate, 10 minutes pre-incubation, 30 minutes reaction at room temperature; read-out: Enzyme activity IC50 grade", "protocol": "In this experimental example, the inhibitory effect of the compounds according to the present invention and the positive control compound on USP1 deubiquitinating activity was tested using a biochemical enzymatic assay. Ubiquitin-rhodamine 110 was used as a substrate for measuring deubiquitinating activity. This substrate compound is a substance in which rhodamine 110 is linked to the glycine residue at the C-terminus of ubiquitin by an amide bond. When this amide bond is cleaved by the deubiquitinating activity, a fluorescent signal is counted.\nSubsequently, analytical buffer solution (50 mM hydroxyethylpiperazineethanesulfonic acid (HEPES) containing USP1 enzyme, 100 mM NaCl, 2 mM tris(2-carboxyethyl)phosphine (TCEP), and 100 µg/mL bovine serum albumin (BSA)) were added to each well of the plate and incubated at room temperature for 10 minutes. Subsequently, analytical y buffer solution containing ubiquitin-rhodamine 110 was added to each well and reacted at room temperature for 30 minutes."}}, "data": [{"compound": "COc1ncnc(C2CC2)c1-c1ncc(P(C)(C)=O)c(NCc2ccc(-c3nc(C(F)(F)F)cn3C)cc2)n1", "note": "[Example 2, (4'-cyclopropyl-6'-methoxy-4-((4-(1-methyl-4-(trifluoromethyl)-1H-imidazol-2-yl)benzyl)amino)-[2,5'-bipyrimidine]-5-yl)dimethylphosphine oxide]", "values": [{"measurement": "IC50", "setting": "MDA-MB-436", "value": "100 to 500", "unit": "nM"}, {"measurement": "IC50", "setting": "USP1 enzyme", "value": "50 to 100", "unit": "nM"}]}, {"compound": "Cc1cnn(C(C)C)c1-c1ncc(P(C)(C)=O)c(NCc2ccc(-c3nc(C(F)(F)F)cn3C)cc2)n1", "note": "[Example 3, (2-(1-isopropyl-4-methyl-1H-pyrazole-5-yl)-4-((4-(1-methyl-4-(trifluoromethyl)-1H-imidazol-2-yl)benzyl)amino)pyrimidin-5-yl)dimethylphosphine oxide]", "values": [{"measurement": "IC50", "setting": "MDA-MB-436", "value": "> 500", "unit": "nM"}, {"measurement": "IC50", "setting": "USP1 enzyme", "value": "> 100", "unit": "nM"}]}, {"compound": "CC(C)c1ncccc1-c1ncc(P(C)(C)=O)c(NCc2ccc(-c3nc(C(F)(F)F)cn3C)cc2)n1", "note": "[Example 4, (2-(2-isopropylpyridine-3-yl)-4-((4-(1-methyl-4-(trifluoromethyl)-1H-imidazol-2-yl)benzyl)amino)pyrimidin-5-yl)dimethylphosphine oxide]", "values": [{"measurement": "IC50", "setting": "MDA-MB-436", "value": "100 to 500", "unit": "nM"}, {"measurement": "IC50", "setting": "USP1 enzyme", "value": "> 100", "unit": "nM"}]}, {"compound": "[2H]C([2H])([2H])Oc1ncnc(C2CC2)c1-c1ncc(P(C)(C)=O)c(NCc2ccc(-c3nc(C(F)(F)F)cn3C)cc2)n1", "note": "[Example 5, (4'-cyclopropyl-6'-(methoxy-d3)-4-((4-(1-methyl-4-(trifluoromethyl)-1H-imidazol-2-yl)benzyl)amino)-[2,5'-bipyrimidine]-5-yl)dimethylphosphine oxide]", "values": [{"measurement": "IC50", "setting": "MDA-MB-436", "value": "100 to 500", "unit": "nM"}, {"measurement": "IC50", "setting": "USP1 enzyme", "value": "50 to 100", "unit": "nM"}]}, {"compound": "Cn1cc(C(F)(F)F)nc1-c1ccc(CNc2nc(-c3cccnc3OC(F)F)ncc2P(C)(C)=O)cc1", "note": "[Example 6, (2-(2-(difluoromethoxy)pyridin-3-yl)-4-((4-(1-methyl-4-(trifluoromethyl)-1H-imidazol-2-yl)benzyl)amino)pyrimidin-5-yl)dimethylphosphine oxide]", "values": [{"measurement": "IC50", "setting": "MDA-MB-436", "value": "100 to 500", "unit": "nM"}, {"measurement": "IC50", "setting": "USP1 enzyme", "value": "> 100", "unit": "nM"}]}, {"compound": "COc1ncnc(C2CC2)c1-c1ncc(P(C)(C)=O)c(NCc2ccc(-c3nc(C(F)(F)F)cn3C)c(F)c2)n1", "note": "[Example 7, (4'-cyclopropyl-4-((3-fluoro-4-(1-methyl-4-(trifluoromethyl)-1H-imidazol-2-yl)benzyl)amino)-6'-methoxy-[2,5'-bipyrimidine]-5-yl)dimethylphosphine oxide]", "values": [{"measurement": "IC50", "setting": "MDA-MB-436", "value": "< 100", "unit": "nM"}, {"measurement": "IC50", "setting": "USP1 enzyme", "value": "50 to 100", "unit": "nM"}]}, {"compound": "COc1ncnc(C2CC2)c1-c1ncc(P(C)(C)=O)c(NCc2ccc(-c3nc(C(F)(F)F)cn3C3CC3)cc2)n1", "note": "[Example 8, (4'-cyclopropyl-4-((4-(1-cyclopropyl-4-(trifluoromethyl)-1H-imidazol-2-yl)benzyl)amino)-6'-methoxy-[2,5'-bipyrimidine]-5-yl)dimethylphosphine oxide]", "values": [{"measurement": "IC50", "setting": "MDA-MB-436", "value": "< 100", "unit": "nM"}, {"measurement": "IC50", "setting": "USP1 enzyme", "value": "< 50", "unit": "nM"}]}, {"compound": "COc1ncnc(C2CC2)c1-c1ncc(P(C)(C)=O)c(NCc2ccc(-n3nc(C(F)(F)F)cc3C)cc2)n1", "note": "[Example 9, (4'-cyclopropyl-6'-methoxy-4-((4-(5-methyl-3-(trifluoromethyl)-1H-pyrazole-1-yl)benzyl)amino)-[2,5'-bipyrimidine]-5-yl)dimethylphosphine oxide]", "values": [{"measurement": "IC50", "setting": "MDA-MB-436", "value": "< 100", "unit": "nM"}, {"measurement": "IC50", "setting": "USP1 enzyme", "value": "< 50", "unit": "nM"}]}, {"compound": "COc1ncnc(C2CC2)c1-c1ncc(P(C)(C)=O)c(NCC23CCC(c4nc(C(F)(F)F)cn4C)(CC2)CC3)n1", "note": "[Example 10, (4'-cyclopropyl-6'-methoxy-4-(((4-(1-methyl-4-(trifluoromethyl)-1H-imidazol-2-yl)bicyclo[2.2.2]octan-1-yl)methyl)amino)-[2,5'-bipyrimidine]-5-yl)dimethylphosphine oxide]", "values": [{"measurement": "IC50", "setting": "MDA-MB-436", "value": "100 to 500", "unit": "nM"}, {"measurement": "IC50", "setting": "USP1 enzyme", "value": "50 to 100", "unit": "nM"}]}, {"compound": "Cc1cnc(-c2ccccc2C(C)C)nc1NCc1ccc(-n2ccnn2)cc1", "note": "[ML323, N-(4-(1H-1,2,3-triazol-1-yl)benzyl)-5-methyl-2-(2-isopropylphenyl)pyrimidin-4-amine, reference compound]", "values": [{"measurement": "IC50", "setting": "MDA-MB-436", "value": "> 500", "unit": "nM"}]}]}
